Here are results for five molecules from ChEMBL document CHEMBL4673352, “Discovery of AZD4573, a Potent and Selective Inhibitor of CDK9 That Enables Short Duration of Target Engagement for the Treatment of Hematological Malignancies” (J Med Chem, 2020).

By IC50 is commonly meant the concentration at which inhibition is half-maximal. As a reminder, the half-life is the time needed for the level to fall by half in the phase considered. A low value points to rapid decline. Broadly, the clearance is the volume of plasma or blood freed of the substance per unit of time. A higher clearance goes with a high capacity for elimination. As a reminder, the solubility is the dissolved amount per volume that the medium holds. What is called logD is the decadic logarithm of the distribution of all forms, ionised or not, between an organic phase and buffer at a given pH. The low end stands for lower lipophilicity, the high end for higher lipophilicity. As a reminder, the solubility (thermodynamic) is solubility found after equilibrating the solid with the medium. The term EC50 denotes the concentration at which the effect is half-maximal.

Each structure is given as a SMILES string. Values after ≈ are worked out from the molar mass of the structure shown.

The target in series [1] is T1, Cyclin-dependent kinase 9 (Homo sapiens, UniProt P50750). The experiment in a line: Inhibition of CDK9 in human MCF7 cells assessed as reduction in RNA Polymerase 2 CTD phosphorylation at Ser2 residues measured after 6 hrs by immunofluorescence assay. The format is cell-based.
A short description of series [2]: Drug level in human liver microsomes treated with (1S,3R)-3-Acetamido-N-(5-chloro-4-(4,5,6,7-tetrahydropyrazolo-[1,5-a]pyridin-3-yl)pyridin-2-yl)cyclohexanecarboxamide at 10 uM measured after 1 hr in presence of NADPH by LC-UV-MS analysis. The format is ADME, Microsome. Background: Microsomes from liver hold many membrane-bound enzymes, among them those of drug oxidation.

A short description of series [3]: Drug level in human hepatocytes treated with (1S,3R)-3-Acetamido-N-(5-chloro-4-(4,5,6,7-tetrahydropyrazolo-[1,5-a]pyridin-3-yl)pyridin-2-yl)cyclohexanecarboxamide. The format is ADME, cell-based, Hepatocyte.
Series [4] in a line: Intrinsic clearance in human liver microsome. The format is ADME, microsomes. The conditions noted are these: liver microsomes, read-out: CLH.
Series [5] in a line: Intrinsic clearance in human cryopreserved hepatocytes assessed per million cells […]. The format is ADME, cell-based, Hepatocyte. The conditions noted are these: read-out: CLH. In general terms: Equilibrium dialysis compares concentrations on both sides of a semipermeable membrane.
Series [6] is described as follows: Half-life in mouse at 5.2 umol/kg, iv formulated as solution. The class given is ADME, organism-based. Conditions: in vivo, dose 5.2 µmol/kg.
The nature of series [7]: Clearance in Beagle dog plasma at 5.2 umol/kg, iv administered as 0.25 hrs infusion. The format is ADME, organism-based, Canis lupus familiaris. The conditions noted are these: dose 5.2 µmol/kg.
A short description of series [8]: Volume of distribution at steady state in Han Wistar rat at […], iv formulated as solution. The class given is ADME, organism-based. Conditions: in vivo, dose 1.3 µmol/kg, read-out: Vdss.
The nature of series [9]: Intrinsic clearance in rat cryopreserved hepatocytes assessed per million cells […]. The class given is ADME, cell-based, Hepatocyte. The conditions noted are these: cryopreserved hepatocytes, read-out: CLH.
A short description of series [10]: Solubility of compound in phosphate buffer at pH 7.4 using dried form of sample. The format is physicochemical. The conditions noted are these: phosphate buffer, read-out: solubility.
Series [11] in a line: Clearance in Han Wistar rat plasma at […], iv formulated as solution. The class given is ADME, organism-based. The conditions noted are these: dose 1.3 µmol/kg.
The nature of series [12]: Volume of distribution at steady state in Beagle dog at 5.2 umol/kg, iv administered as 0.25 hrs infusion. The class given is ADME, organism-based, Canis lupus familiaris. Conditions: in vivo, dose 5.2 µmol/kg, read-out: Vdss.
A short description of series [13]: Volume of distribution at steady state in mouse at 5.2 umol/kg, iv formulated as solution. The conditions noted are these: in vivo, dose 5.2 µmol/kg, read-out: Vdss. The class given is ADME, organism-based.
The nature of series [14]: Lipophilicity, log D of compound in buffer/octanol at pH 7.4 by shake flask method. The format is physicochemical.
Series [15] in a line: Solubility of compound in pH 7.4 PBS buffer using crystalline form of sample. The format is physicochemical.
Series [16] in a line: Solubility of compound in pH 4 0.1 M acetate buffer using crystalline form of sample. The class given is physicochemical.
Series [17] can be described thus: Intrinsic clearance in mouse cryopreserved hepatocytes assessed per million cells […]. Conditions: read-out: CLH. The format is ADME, cell-based, Hepatocyte.
The nature of series [18]: Half-life in Beagle dog at 5.2 umol/kg, iv administered as 0.25 hrs infusion. The format is ADME, organism-based, Canis lupus familiaris. Conditions: in vivo, dose 5.2 µmol/kg.
Series [19] can be described thus: Intrinsic clearance in dog cryopreserved hepatocytes assessed per million cells […]. The format is ADME, cell-based, Canis lupus familiaris, Hepatocyte. The conditions noted are these: read-out: CLH.
The nature of series [20]: Clearance in mouse plasma at 5.2 umol/kg, iv formulated as solution. The conditions noted are these: dose 5.2 µmol/kg. The class given is ADME, organism-based.
Series [21] can be described thus: Half-life in Han Wistar rat at […], iv formulated as solution. The format is ADME, organism-based. The conditions noted are these: in vivo, dose 1.3 µmol/kg.
For a further series, the target named is CDK9/cyclin T1 (Homo sapiens, UniProt P50750). The experiment in a line: Inhibition of recombinant full length human N-terminal GST-fused CDK9 (1 to 372 residues)/His-tagged CyclinT1 (1 to 726 residues) expressed in baculovirus infected insect cells using FITC-X-GSRTPMY-NH2 as substrate preincubated for 10 mins followed by MgCl2 addition and measured after 90 mins in presence of 5 mM ATP by mobility shift assay.

Series [22] addresses T1, Cyclin-dependent kinase 9. The experiment in a line: Inhibition of CDK9 in human MV4-11 cells assessed as induction of caspase-3/7 activation measured after 6 hrs followed by Caspase-glo reagent based assay. The format is cell-based.

T1 sequence (P50750 whole entry): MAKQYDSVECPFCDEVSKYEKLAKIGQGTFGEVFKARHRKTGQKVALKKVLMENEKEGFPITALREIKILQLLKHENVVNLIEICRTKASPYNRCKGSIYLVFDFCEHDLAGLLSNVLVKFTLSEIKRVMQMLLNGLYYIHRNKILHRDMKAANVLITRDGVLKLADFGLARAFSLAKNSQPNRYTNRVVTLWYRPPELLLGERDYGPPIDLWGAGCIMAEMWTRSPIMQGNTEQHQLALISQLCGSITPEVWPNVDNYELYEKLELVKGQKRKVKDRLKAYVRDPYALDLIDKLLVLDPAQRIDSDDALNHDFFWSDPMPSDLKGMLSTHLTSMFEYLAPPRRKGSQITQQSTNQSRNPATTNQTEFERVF
Chain of CDK9/cyclin T1 (O60563 whole entry, the tested form may be a part): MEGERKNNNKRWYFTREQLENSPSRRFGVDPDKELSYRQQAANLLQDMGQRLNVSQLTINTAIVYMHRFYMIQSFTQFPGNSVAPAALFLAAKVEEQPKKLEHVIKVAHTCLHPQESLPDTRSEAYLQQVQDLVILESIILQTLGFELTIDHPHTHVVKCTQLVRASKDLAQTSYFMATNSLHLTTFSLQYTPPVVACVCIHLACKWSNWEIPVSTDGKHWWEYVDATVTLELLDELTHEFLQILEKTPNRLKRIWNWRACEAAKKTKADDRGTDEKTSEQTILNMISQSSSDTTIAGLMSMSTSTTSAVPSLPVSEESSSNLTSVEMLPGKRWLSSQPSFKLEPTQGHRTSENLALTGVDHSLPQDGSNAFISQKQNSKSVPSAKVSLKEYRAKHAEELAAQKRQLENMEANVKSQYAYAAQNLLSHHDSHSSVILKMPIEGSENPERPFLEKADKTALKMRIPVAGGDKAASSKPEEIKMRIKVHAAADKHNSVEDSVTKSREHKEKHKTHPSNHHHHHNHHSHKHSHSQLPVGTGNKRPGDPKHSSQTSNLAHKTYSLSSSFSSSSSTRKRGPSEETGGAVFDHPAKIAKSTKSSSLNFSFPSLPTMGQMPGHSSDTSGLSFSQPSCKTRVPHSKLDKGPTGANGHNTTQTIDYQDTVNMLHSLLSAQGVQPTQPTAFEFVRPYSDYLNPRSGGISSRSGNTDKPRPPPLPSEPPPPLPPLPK
Chain of CDK9/cyclin T1 (P50750 whole entry, the tested form may be a part): as the sequence (P50750 whole entry) above

For the molecule `CC(=O)N[C@@H]1CCC[C@H](C(=O)Nc2cc(-c3cn[nH]c3CCCCO)c(Cl)cn2)C1`, in series [1], the IC50 was more than 2 µM. For the same molecule, the Drug uptake result in [2] and in [3] was “Active” each time. In addition, in series [4], the microsomal CLint was 15 µL/min/mg. In series [5], the hepatocyte CLint stood at 2.9 µL/min/1e6 cells.
Consider `COc1cc(F)ccc1-c1ccnc(NC(=O)[C@H]2CCC[C@@H](NC(C)=O)C2)c1`, for which the results for the half-life in [6], in series [18] and in [21] were 15.6 min, 60 min and 13.2 min, respectively. Moreover, the results for the clearance in [7], in series [11] and in series [20] were 7.5 mL/min/kg, 77 mL/min/kg and 40 mL/min/kg, respectively. Also, the Vd amounted to 1.3 L/kg in series [8], 0.62 L/kg in series [12] and 1.1 L/kg in series [13]. Besides, the hepatocyte CLint in [9] worked out at 58 µL/min/1e6 cells; in series [17], 52 µL/min/1e6 cells; in series [19], 5.9 µL/min/1e6 cells; in [5] it was 1.4 µL/min/1e6 cells. For the same molecule, the solubility in [10] is 33 µM (≈ 12.7 µg/mL). Also, in series [14], the logD is 3. The figures for the thermodynamic solubility in [15] and in series [16] were 7.5 µM (≈ 2.89 µg/mL) and 24 µM (≈ 9.25 µg/mL), respectively. For the same molecule, in [4], the microsomal CLint is 12 µL/min/mg.
Regarding `CC(=O)N[C@@H]1CCC[C@H](C(=O)Nc2cc(-c3cn[nH]c3CCCC(=O)O)c(Cl)cn2)C1`, the Drug uptake entry in series [2] and in [3] was “Active” in each case.
On to `CC(=O)N[C@@H]1CCC[C@H](C(=O)Nc2cc(-c3cnn(C)c3C)c(Cl)cn2)C1`, for which the IC50 in series [1] came out at 0.44 µM; on CDK9/cyclin T1 it was 0.27 µM. The hepatocyte CLint in series [9] is 10 µL/min/1e6 cells; in series [5], less than 1 µL/min/1e6 cells. Besides, the solubility in series [10] was determined as 960 µM (≈ 374 µg/mL). Moreover, the EC50 in [22] came out at 0.56 µM. This molecule also registered a logD in series [14] of 2.6. In [4], the microsomal CLint is 3.3 µL/min/mg.
For `CC(=O)N[C@@H]1CCC[C@H](C(=O)Nc2cc(-c3cnn4c3CCCC4O)c(Cl)cn2)C1` (stereo partly drawn), in [1], the IC50 is 0.72 µM. Besides, the Drug uptake entry in series [2] and in series [3] was “Active” throughout. Also, the microsomal CLint in [4] was 18 µL/min/mg. In addition, the hepatocyte CLint in series [5] was 33 µL/min/1e6 cells.
